# In PubChem BioAssay (NCI):
#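 Test compounds were applied to cells in 96-well plates for 48 hours at 5 doses. GI50 is the concentration that inhibits growth by half. The concentration for full growth arrest is given as TGI.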
# Key:
# Test in all cases: DTP human tumour cell line panel, 48 h
# [1] = tested on: EKVX NSCLC
# [2] = tested on: SK-MEL-28 melanoma
# [3] = tested on: HOP-62 NSCLC
# [4] = tested on: HL-60(TB) leukemia
# [5] = tested on: HCT-116 colon
# [6] = tested on: T-47D breast
# [7] = tested on: OVCAR-8 ovarian
# [8] = tested on: HT29 colon
# [9] = tested on: COLO 205 colon
# [10] = tested on: NCI-H23 lung
# [11] = tested on: SK-MEL-5 melanoma
# [12] = tested on: PC-3 prostate
# [13] = tested on: HCT-15 colon
# [14] = tested on: MDA-MB-231 breast
# [15] = tested on: 786-0 renal
# [16] = tested on: OVCAR-5 ovarian
# [17] = tested on: LOX IMVI melanoma
# [18] = tested on: U251 CNS
# [19] = tested on: CAKI-1 renal
# [20] = tested on: HCC-2998 colon
# [21] = tested on: RPMI-8226 leukemia
# [22] = tested on: SN12C renal
# [23] = tested on: DU-145 prostate
# [24] = tested on: SR leukemia
# [25] = tested on: BT-549 breast
# [26] = tested on: OVCAR-4 ovarian
# [27] = tested on: NCI/ADR-RES ovarian
# [28] = tested on: NCI-H522 lung
# [29] = tested on: SF-539 CNS
# [30] = tested on: UACC-62 melanoma
# [31] = tested on: MOLT-4 leukemia
# [32] = tested on: UACC-257 melanoma
# [33] = tested on: KM12 colon
# [34] = tested on: SK-OV-3 ovarian
# [35] = tested on: SK-MEL-2 melanoma
# [36] = tested on: NCI-H226 lung
# [37] = tested on: ACHN renal
# [38] = tested on: HOP-92 NSCLC
# [39] = tested on: SW-620 colon
# [40] = tested on: MALME-3M melanoma
# [41] = tested on: SNB-19 CNS
# [42] = tested on: IGROV1 ovarian
# [43] = tested on: HS 578T breast
# [44] = tested on: CCRF-CEM leukemia
# [45] = tested on: SF-295 CNS
# [46] = tested on: A549 NSCLC
# [47] = tested on: K-562 leukemia
# [48] = tested on: MCF7 breast
# [49] = tested on: MDA-MB-435
# [50] = tested on: OVCAR-3 ovarian
# [51] = tested on: SF-268 CNS
# [52] = tested on: RXF 393 renal
# [53] = tested on: M14 melanoma
# [54] = tested on: SNB-75 CNS
# [55] = tested on: UO-31 renal
# [56] = tested on: TK-10 renal
# [57] = tested on: NCI-H460 lung
# [58] = tested on: A498 renal
compound,measurement,setting,value
CC(C)(C)N1CCC1CN (stereo unspecified),GI50,[1],> 100 µM
same,TGI,[1],> 100 µM
same,GI50,[2],> 100 µM
same,TGI,[2],> 100 µM
same,GI50,[3],> 100 µM
same,TGI,[3],> 100 µM
same,GI50,[4],> 100 µM
same,TGI,[4],> 100 µM
same,GI50,[5],> 100 µM
same,TGI,[5],> 100 µM
same,GI50,[6],> 100 µM
same,TGI,[6],> 100 µM
same,GI50,[7],> 100 µM
same,TGI,[7],> 100 µM
same,GI50,[8],> 100 µM
same,TGI,[8],> 100 µM
same,GI50,[9],> 100 µM
same,TGI,[9],> 100 µM
same,GI50,[10],> 100 µM
same,TGI,[10],> 100 µM
same,GI50,[11],> 100 µM
same,TGI,[11],> 100 µM
same,GI50,[12],> 100 µM
same,TGI,[12],> 100 µM
same,GI50,[13],> 100 µM
same,TGI,[13],> 100 µM
same,GI50,[14],> 100 µM
same,TGI,[14],> 100 µM
same,GI50,[15],> 100 µM
same,TGI,[15],> 100 µM
same,GI50,[16],> 100 µM
same,TGI,[16],> 100 µM
same,GI50,[17],> 100 µM
same,TGI,[17],> 100 µM
same,GI50,[18],> 100 µM
same,TGI,[18],> 100 µM
same,GI50,[19],> 100 µM
same,TGI,[19],> 100 µM
same,GI50,[20],> 100 µM
same,TGI,[20],> 100 µM
same,GI50,[21],> 100 µM
same,TGI,[21],> 100 µM
same,GI50,[22],> 100 µM
same,TGI,[22],> 100 µM
same,GI50,[23],> 100 µM
same,TGI,[23],> 100 µM
same,GI50,[24],> 100 µM
same,TGI,[24],> 100 µM
same,GI50,[25],> 100 µM
same,TGI,[25],> 100 µM
same,GI50,[26],> 100 µM
same,TGI,[26],> 100 µM
same,GI50,[27],> 100 µM
same,TGI,[27],> 100 µM
same,GI50,[28],> 100 µM
same,TGI,[28],> 100 µM
same,GI50,[29],> 100 µM
same,TGI,[29],> 100 µM
same,GI50,[30],> 100 µM
same,TGI,[30],> 100 µM
same,GI50,[31],> 100 µM
same,TGI,[31],> 100 µM
same,GI50,[32],> 100 µM
same,TGI,[32],> 100 µM
same,GI50,[33],> 100 µM
same,TGI,[33],> 100 µM
same,GI50,[34],> 100 µM
same,TGI,[34],> 100 µM
same,GI50,[35],> 100 µM
same,TGI,[35],> 100 µM
same,GI50,[36],> 100 µM
same,TGI,[36],> 100 µM
same,GI50,[37],> 100 µM
same,TGI,[37],> 100 µM
same,GI50,[38],> 100 µM
same,TGI,[38],> 100 µM
same,GI50,[39],> 100 µM
same,TGI,[39],> 100 µM
same,GI50,[40],> 100 µM
same,TGI,[40],> 100 µM
same,GI50,[41],> 100 µM
same,TGI,[41],> 100 µM
same,GI50,[42],> 100 µM
same,TGI,[42],> 100 µM
same,GI50,[43],> 100 µM
same,TGI,[43],> 100 µM
same,GI50,[44],> 100 µM
same,TGI,[44],> 100 µM
same,GI50,[45],> 100 µM
same,TGI,[45],> 100 µM
same,GI50,[46],> 100 µM
same,TGI,[46],> 100 µM
same,GI50,[47],> 100 µM
same,TGI,[47],> 100 µM
same,GI50,[48],> 100 µM
same,TGI,[48],> 100 µM
same,GI50,[49],> 100 µM
same,TGI,[49],> 100 µM
same,GI50,[50],> 100 µM
same,TGI,[50],> 100 µM
same,GI50,[51],> 100 µM
same,TGI,[51],> 100 µM
same,GI50,[52],> 100 µM
same,TGI,[52],> 100 µM
same,GI50,[53],> 100 µM
same,TGI,[53],> 100 µM
same,GI50,[54],> 100 µM
same,TGI,[54],> 100 µM
same,GI50,[55],> 100 µM
same,TGI,[55],> 100 µM
same,GI50,[56],> 100 µM
same,TGI,[56],> 100 µM
same,GI50,[57],> 100 µM
same,TGI,[57],> 100 µM
same,GI50,[58],> 100 µM
same,TGI,[58],> 100 µM
